# Activity calls are given as the source filed them.
# How the values were obtained:
# [1] = target: Voltage-dependent T-type calcium channel subunit alpha-1H (Homo sapiens, UniProt O95180); format: functional;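 note: channel activity triggered by adding a high calcium stimulation buffer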
# [2] = target: DNA dC->dU-editing enzyme APOBEC-3A (Homo sapiens, UniProt P31941); assay: A3A deaminase inhibition for selectivity – biochemical, dose response (AID 504722); format: functional
# [3] = target: DNA dC->dU-editing enzyme APOBEC-3G (Homo sapiens, UniProt Q9HC16); assay: Dose Response confirmation of small molecule APOBEC3G DNA Deaminase Inhibitors via a fluorescence-based single-stranded DNA deaminase assay. [Related pubchem assays (depositor defined):AID493012, AID493028]; format: functional
# DNA dC->dU-editing enzyme APOBEC-3G, sequence (Q9HC16 whole entry): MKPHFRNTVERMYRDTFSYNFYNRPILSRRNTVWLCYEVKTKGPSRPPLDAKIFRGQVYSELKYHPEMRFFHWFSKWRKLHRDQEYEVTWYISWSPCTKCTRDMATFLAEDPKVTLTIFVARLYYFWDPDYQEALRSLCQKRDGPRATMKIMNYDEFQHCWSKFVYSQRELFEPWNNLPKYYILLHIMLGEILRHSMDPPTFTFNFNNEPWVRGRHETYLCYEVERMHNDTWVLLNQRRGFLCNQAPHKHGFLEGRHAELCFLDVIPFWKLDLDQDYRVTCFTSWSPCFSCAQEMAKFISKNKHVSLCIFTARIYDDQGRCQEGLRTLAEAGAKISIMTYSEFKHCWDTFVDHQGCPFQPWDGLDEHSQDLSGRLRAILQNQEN
# [4] = Luminescence Cell-Based Dose Response HTS to Identify Inhibitors of 5'UTR Stem-Loop Driven Prion Protein mRNA Translation in H4 Neuroglioblastoma Cells. [Related pubchem assays: 1827 (Project Summary), 1813 (Primary HTS)]; format: functional
# [5] = alpha-synuclein stem-loop luciferase translation blockers – H4 neuroglioma cells, luminescence, confirmation (AID 1988); format: functional, cell-based
# [6] = luciferase reporter signal suppression in cells – H4 neuroglioma cells, luminescence, dose response (AID 1990); format: functional, cell-based
# [7] = A cytotoxicity screen of small molecule inhibitors of the PhoP region in Salmonella typhi identified in the primary screen. [Related pubchem assays: 1850, 1864, 1985 ]; format: functional
# [8] = target: Melanin-concentrating hormone receptor 1 (Homo sapiens, UniProt Q99705); assay: Fluorescence-based counterscreen for antagonists of the G-protein coupled receptor 7 (GPR7): cell-based high throughput dose response assay to identify antagonists of the melanin-concentrating hormone receptor 1 (MCHR1).; format: functional
# Melanin-concentrating hormone receptor 1, sequence (Q99705 whole entry): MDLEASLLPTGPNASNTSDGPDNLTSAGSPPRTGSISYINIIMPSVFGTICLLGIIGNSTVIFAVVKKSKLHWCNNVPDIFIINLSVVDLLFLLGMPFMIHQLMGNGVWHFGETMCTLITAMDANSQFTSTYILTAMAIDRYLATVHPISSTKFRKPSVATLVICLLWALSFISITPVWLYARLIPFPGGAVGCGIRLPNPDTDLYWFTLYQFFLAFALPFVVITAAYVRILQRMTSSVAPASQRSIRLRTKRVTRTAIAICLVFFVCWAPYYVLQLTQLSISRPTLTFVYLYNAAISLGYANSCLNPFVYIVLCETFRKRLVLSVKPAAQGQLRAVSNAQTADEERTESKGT
# [9] = cells
# [10] = viability of uninfected HEp-2 cells – cell-based, HTS, cytotoxicity control for RSV inhibitor project, dose response (AID 2410); format: functional; conditions: human respiratory syncytial virus
# [11] = tested on: HT-1080; assay: HT1080 cell viability loss – fluorescence readout (AID 620); format: functional, cell-based; conditions: Homo sapiens
# [12] = target: Troponin, cardiac muscle (Homo sapiens, UniProt P19429+P45379+P63316); assay: Fluorescence-based biochemical high throughput dose response assay for activators of the calcium sensitivity of cardiac Regulated Thin Filaments (RTF). [Related pubchem assays (depositor defined):AID493008, AID493018, AID504382, AID504383]; format: protein-complex assay
# [13] = target: T1, Protein skinhead-1 (Caenorhabditis elegans, UniProt P34707); format: functional
# T1 sequence (P34707 whole entry): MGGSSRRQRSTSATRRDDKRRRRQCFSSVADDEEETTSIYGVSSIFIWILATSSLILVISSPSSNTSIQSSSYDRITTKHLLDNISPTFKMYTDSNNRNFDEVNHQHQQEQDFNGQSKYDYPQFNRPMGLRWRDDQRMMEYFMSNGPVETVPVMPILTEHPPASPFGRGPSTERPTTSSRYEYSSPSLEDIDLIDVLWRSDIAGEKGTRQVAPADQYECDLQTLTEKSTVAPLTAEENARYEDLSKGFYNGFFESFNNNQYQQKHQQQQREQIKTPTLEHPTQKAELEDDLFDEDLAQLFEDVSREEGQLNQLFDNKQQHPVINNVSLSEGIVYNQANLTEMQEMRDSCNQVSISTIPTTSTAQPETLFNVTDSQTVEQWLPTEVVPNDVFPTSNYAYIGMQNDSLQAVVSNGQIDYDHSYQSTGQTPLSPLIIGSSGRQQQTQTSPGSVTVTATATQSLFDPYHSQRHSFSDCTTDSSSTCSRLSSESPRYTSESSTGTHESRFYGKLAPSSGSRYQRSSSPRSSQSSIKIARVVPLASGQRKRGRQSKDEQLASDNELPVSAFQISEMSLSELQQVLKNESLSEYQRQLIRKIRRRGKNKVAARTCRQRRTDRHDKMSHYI
# [14] = target: Luciferin 4-monooxygenase (Photinus pyralis, UniProt P08659); assay: Counter Screen for Luciferase-based Assay Positives. [Related pubchem assays: 620, 618, 411 ]
# Luciferin 4-monooxygenase, sequence (P08659 whole entry): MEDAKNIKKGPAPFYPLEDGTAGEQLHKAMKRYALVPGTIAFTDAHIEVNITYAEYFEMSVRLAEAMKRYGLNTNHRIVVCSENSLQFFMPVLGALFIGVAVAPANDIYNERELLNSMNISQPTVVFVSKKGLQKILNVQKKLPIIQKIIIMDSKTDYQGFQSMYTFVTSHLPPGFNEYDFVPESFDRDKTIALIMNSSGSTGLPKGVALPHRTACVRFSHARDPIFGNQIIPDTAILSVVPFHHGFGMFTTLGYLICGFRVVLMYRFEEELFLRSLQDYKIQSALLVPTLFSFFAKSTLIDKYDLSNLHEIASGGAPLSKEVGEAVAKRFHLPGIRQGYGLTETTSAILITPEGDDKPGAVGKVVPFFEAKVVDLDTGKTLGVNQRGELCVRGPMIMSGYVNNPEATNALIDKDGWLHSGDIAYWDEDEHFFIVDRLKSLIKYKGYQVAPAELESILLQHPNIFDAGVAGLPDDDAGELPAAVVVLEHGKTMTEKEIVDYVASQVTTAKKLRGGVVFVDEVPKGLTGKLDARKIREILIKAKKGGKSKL
# [15] = target: T2, Dual specificity protein phosphatase 6 (Rattus norvegicus, UniProt Q64346)
# T2 sequence (Q64346 whole entry): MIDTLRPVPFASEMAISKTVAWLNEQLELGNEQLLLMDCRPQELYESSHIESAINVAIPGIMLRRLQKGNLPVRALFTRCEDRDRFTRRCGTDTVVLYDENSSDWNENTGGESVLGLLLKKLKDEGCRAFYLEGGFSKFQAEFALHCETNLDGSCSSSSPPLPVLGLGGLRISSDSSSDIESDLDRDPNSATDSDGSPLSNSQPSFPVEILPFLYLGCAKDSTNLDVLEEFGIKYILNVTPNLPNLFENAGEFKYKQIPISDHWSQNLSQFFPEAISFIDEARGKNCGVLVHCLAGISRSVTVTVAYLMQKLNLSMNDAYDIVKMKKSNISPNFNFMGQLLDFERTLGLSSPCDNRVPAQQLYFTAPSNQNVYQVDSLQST
# [16] = target: T3, Tyrosine-protein phosphatase non-receptor type 7 (Homo sapiens, UniProt P35236); format: functional
# T3 sequence (P35236 whole entry): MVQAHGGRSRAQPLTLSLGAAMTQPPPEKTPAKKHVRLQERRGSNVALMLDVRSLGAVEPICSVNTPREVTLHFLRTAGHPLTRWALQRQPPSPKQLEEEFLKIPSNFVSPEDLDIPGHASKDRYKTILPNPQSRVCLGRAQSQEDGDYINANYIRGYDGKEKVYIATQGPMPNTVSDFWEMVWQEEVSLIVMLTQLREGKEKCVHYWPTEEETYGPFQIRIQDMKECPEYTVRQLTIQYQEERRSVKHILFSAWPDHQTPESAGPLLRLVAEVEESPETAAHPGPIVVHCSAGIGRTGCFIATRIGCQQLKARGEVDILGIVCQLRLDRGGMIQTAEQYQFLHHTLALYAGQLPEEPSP
# [17] = target: T2, Dual specificity protein phosphatase 6; format: functional
# [18] = target: Glyceraldehyde-3-phosphate dehydrogenase (Homo sapiens, UniProt P04406)
# Glyceraldehyde-3-phosphate dehydrogenase, sequence (P04406 whole entry): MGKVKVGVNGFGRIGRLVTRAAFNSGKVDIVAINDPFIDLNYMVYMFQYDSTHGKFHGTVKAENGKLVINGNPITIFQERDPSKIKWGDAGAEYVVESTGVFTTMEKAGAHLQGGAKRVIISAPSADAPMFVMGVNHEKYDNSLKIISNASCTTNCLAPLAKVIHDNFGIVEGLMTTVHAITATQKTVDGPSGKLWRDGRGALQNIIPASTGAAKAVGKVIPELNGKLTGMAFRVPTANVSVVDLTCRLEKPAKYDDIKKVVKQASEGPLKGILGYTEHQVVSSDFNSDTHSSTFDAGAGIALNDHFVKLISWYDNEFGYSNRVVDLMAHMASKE
# [19] = tested on: BJ; assay: BJ-TERT fibroblast viability loss – cell-based, RAS-independent, luminescence, dose response (AID 1933); format: functional; conditions: Homo sapiens
# [20] = DRD fibroblast viability loss – cell-based, non-viral oncogenic, luminescence, dose response (AID 1934); format: functional; conditions: Homo sapiens
# [21] = luciferase reporter signal reduction – luminescence, H4-C neuroglioblastoma cells, dose response (AID 2458); format: functional, cell-based;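 note: H4 neuroglioblastoma cells stably carrying a luciferase reporter gene fusion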
# [22] = tested on: BJ; assay: cells; format: functional, cell-based; conditions: Homo sapiens
# [23] = cells; format: functional, cell-based
# [24] = tested on: BJ; assay: BJ-TERT-LT-ST fibroblast viability loss – cell-based, RAS-independent, luminescence, dose response (AID 1935); format: functional; conditions: Homo sapiens;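 note: BJ fibroblasts immortalized with TERT plus LT and ST oncogenes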
# [25] = alpha-synuclein stem-loop translation blockers – luminescence, H4 neuroglioblastoma cells, dose confirmation, confirmation (AID 2454); format: functional, cell-based;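 note: H4 neuroglioblastoma cells carrying an alpha-synuclein 5'UTR luciferase reporter; potency for inhibition of the luciferase signal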
# [26] = target: T4, Aminopeptidase N (Plasmodium falciparum FcB1/Columbia, UniProt O96935); assay: malaria alanyl aminopeptidase activity blockers – biochemical, fluorogenic H-Leu-NHMec substrate, 1536-well (AID 1445); parameters: species or system Plasmodium falciparum 3D7, 3D7
# T4 sequence (O96935 whole entry): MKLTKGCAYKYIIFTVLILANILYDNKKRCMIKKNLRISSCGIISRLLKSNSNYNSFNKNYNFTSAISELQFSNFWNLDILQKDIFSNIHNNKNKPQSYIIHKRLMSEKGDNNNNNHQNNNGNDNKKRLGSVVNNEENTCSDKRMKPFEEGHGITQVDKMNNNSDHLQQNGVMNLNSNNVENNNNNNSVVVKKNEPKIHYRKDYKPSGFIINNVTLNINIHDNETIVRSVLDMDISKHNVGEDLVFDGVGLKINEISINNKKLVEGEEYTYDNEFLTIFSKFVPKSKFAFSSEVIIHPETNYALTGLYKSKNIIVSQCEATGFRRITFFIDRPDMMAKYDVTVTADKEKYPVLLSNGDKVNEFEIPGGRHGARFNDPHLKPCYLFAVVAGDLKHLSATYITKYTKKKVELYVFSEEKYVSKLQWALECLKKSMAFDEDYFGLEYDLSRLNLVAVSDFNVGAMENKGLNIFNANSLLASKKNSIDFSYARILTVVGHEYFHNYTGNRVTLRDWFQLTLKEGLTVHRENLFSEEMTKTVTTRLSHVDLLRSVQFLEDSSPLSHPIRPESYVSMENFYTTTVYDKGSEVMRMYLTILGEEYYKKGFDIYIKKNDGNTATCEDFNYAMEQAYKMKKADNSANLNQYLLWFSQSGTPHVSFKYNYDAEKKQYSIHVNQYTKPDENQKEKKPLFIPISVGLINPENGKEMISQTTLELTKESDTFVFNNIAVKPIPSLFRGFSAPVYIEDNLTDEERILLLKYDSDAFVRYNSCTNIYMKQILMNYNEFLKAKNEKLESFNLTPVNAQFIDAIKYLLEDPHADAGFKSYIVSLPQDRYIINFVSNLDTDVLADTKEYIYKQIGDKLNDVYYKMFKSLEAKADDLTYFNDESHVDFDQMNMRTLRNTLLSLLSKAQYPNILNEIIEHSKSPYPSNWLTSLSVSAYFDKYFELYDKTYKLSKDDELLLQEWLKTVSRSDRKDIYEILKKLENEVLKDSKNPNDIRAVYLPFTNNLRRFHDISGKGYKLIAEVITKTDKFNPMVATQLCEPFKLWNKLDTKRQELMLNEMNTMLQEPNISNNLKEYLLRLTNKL
# [27] = NIH3T3 cell viability loss – ATP luminescence, mouse fibroblasts, counter-screen, dose response (AID 2010); format: functional, cell-based;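 note: cells exposed to compound for about 90 hours before reading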
# [28] = Trypanosoma cruzi growth suppression in host cells – NIH3T3 host cells, beta-gal luminescence, confirmation (AID 2044); format: functional, cell-based;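 note: intracellular parasites grown in NIH/3T3 mouse fibroblasts as host cells; luminescent beta-galactosidase reporter signal from transgenic T. cruzi replicating inside host cells; inhibitors lower the luminescence signal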
# [29] = target: T5, Ubiquitin-conjugating enzyme E2 N (Homo sapiens, UniProt P61088); format: functional;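 note: Dose-response confirmation in a TR-FRET assay detecting UBC13-driven polyubiquitin chain formation, inhibition measured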
# T5 sequence (P61088 whole entry): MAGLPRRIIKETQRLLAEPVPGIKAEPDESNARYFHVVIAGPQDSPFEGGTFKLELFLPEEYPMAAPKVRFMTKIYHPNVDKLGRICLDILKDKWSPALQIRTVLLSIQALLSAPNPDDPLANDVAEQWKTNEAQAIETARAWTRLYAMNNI
# Voltage-dependent T-type calcium channel subunit alpha-1H, sequence (O95180 whole entry): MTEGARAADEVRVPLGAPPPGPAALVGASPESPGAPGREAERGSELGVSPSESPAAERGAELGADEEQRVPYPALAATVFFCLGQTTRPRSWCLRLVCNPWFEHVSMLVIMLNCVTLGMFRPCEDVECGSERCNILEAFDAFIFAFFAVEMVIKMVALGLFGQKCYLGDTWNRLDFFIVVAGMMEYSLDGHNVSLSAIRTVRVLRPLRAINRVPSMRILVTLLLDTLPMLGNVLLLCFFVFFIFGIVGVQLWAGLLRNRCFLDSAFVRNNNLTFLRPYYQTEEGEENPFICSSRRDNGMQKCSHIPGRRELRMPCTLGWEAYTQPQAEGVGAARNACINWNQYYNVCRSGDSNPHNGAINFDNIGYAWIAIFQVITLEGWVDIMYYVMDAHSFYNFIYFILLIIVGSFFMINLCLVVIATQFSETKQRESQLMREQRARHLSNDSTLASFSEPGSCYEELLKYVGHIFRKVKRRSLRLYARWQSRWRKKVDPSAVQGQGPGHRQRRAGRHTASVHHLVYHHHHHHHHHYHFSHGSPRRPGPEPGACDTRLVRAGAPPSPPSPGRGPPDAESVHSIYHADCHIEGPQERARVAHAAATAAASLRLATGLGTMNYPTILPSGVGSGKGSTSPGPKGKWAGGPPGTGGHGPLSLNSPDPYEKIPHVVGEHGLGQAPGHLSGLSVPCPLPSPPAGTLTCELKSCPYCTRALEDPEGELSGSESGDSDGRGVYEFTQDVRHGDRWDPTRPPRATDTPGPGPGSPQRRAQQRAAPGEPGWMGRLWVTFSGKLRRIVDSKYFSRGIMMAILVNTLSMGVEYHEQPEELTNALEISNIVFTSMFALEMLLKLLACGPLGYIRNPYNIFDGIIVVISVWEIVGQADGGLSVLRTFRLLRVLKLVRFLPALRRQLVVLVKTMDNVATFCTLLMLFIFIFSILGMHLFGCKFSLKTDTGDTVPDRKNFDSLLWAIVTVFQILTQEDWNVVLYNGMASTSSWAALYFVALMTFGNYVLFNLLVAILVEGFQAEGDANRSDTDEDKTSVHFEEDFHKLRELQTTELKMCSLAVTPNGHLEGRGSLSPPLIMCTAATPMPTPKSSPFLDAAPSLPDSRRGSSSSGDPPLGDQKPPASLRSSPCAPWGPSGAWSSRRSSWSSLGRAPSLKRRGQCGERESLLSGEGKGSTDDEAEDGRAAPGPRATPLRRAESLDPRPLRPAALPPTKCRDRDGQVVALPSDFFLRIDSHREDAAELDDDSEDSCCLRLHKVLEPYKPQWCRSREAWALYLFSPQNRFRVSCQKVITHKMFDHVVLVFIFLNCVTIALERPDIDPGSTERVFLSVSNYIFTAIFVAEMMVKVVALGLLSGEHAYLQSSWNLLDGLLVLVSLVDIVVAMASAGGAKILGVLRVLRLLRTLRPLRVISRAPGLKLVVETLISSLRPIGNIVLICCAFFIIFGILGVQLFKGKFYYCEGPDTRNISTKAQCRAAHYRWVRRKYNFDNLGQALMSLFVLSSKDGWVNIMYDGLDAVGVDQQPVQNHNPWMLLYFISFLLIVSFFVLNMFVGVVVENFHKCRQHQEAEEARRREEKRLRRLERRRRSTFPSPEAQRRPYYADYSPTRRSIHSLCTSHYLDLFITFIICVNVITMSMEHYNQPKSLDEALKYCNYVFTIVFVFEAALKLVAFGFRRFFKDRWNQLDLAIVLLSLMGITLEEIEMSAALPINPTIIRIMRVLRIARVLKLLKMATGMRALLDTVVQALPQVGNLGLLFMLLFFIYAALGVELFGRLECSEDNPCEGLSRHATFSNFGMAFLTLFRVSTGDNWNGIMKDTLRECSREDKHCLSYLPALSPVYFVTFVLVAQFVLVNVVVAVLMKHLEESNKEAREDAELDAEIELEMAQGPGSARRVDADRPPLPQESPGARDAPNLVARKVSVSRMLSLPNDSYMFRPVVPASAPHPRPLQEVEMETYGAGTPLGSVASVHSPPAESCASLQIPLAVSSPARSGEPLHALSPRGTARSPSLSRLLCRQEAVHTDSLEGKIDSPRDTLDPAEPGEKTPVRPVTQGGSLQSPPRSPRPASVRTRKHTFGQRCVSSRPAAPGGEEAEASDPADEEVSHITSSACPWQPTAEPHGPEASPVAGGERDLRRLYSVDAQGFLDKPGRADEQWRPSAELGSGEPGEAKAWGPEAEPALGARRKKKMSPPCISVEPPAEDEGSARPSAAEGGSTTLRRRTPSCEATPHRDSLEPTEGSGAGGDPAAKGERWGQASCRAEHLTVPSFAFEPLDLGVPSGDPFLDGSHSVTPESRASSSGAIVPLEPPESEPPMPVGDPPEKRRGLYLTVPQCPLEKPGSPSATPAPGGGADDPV
# DNA dC->dU-editing enzyme APOBEC-3A, sequence (P31941 whole entry): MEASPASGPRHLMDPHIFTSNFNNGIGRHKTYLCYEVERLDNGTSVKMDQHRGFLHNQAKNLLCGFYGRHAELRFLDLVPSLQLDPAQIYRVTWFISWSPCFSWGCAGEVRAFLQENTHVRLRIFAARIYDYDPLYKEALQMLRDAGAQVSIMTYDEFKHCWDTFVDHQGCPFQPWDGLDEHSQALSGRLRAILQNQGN
smiles,measurement,setting,value
CCOc1ccccc1NC(=O)C1CCCN(S(=O)(=O)c2ccc(OC)c(C)c2)C1 (stereo unspecified),EC50,[1],13.6 µM (active)
C=CCn1c(S)nnc1-c1cccc(S(=O)(=O)N(CC)CC)c1,IC50,[2],> 100 µM (inactive)
same,IC50,[3],5.67 µM (active)
Cc1nc2cc(-c3ccccc3)nn2c(C)c1CCC(=O)N1CCN(c2ccccc2)CC1,EC50,[4],13.6 µM (active)
same,EC50,[5],16.1 µM (active)
same,EC50,[1],4.59 µM (active)
same,EC50,[6],16.6 µM (active)
O=C1c2ccccc2C(=O)N1CCC(c1ccccc1)c1ccco1 (stereo unspecified),EC50,[7],> 50 µM (active)
O=C(c1ccco1)N1CCN(S(=O)(=O)c2ccc(S(=O)(=O)NC3CCCCC3)cc2)CC1,IC50,[8],23.8 µM (not active)
Cc1ccc(S(=O)(=O)N2CCCC(c3nc(O)c4nnn(Cc5ccc6c(c5)OCCO6)c4n3)C2)cc1 (stereo unspecified),IC50,[9],10.2 µM (active)
same,CC50,[10],14.4 µM (active)
Fc1ccc(-c2nnc(-c3ccc(Cl)cc3Cl)o2)cc1,EC50,[11],> 50 µM (not active)
same,EC50,[12],> 71.5 µM (inactive)
same,IC50,[13],> 100 µM (inactive)
same,CC50,[10],37 µM (active)
same,EC50,[14],2.56 µM (active)
Cc1ccccc1NC(NC(=O)c1cccs1)C(Cl)(Cl)Cl (stereo unspecified),EC50,[1],5.15 µM (active)
O=[N+]([O-])c1ccccc1S(=O)(=O)Nc1cccc(-c2ccc(N3CCCC3)nn2)c1,IC50,[9],5.15 µM (active)
same,CC50,[10],40.6 µM (active)
O=C(O)C1Nc2c(cccc2N2CCOCC2)C2C=CCC12 (stereo unspecified),IC50,[15],44 µM (active)
same,IC50,[16],3.87 µM (active)
same,IC50,[17],60.1 µM (active)
same,IC50,[18],> 100 µM (not active)
COc1ccc(C(=O)Nc2nc3c(s2)CCCC3)cc1S(=O)(=O)N1CCCc2ccccc21,IC50,[9],5.95 µM (active)
same,CC50,[10],3.66 µM (active)
CN(C)c1nnnn1-c1ccc(Oc2ccccc2)cc1,EC50,[7],> 50 µM (active)
CN1C(=O)C2(Nc3ccccc3-c3nc4ccccc4n32)c2ccccc21 (stereo unspecified),EC50,[7],> 50 µM (active)
Cc1ccc(NC(=O)CSc2nc3ccccc3c3nc4ccccc4n23)cc1,EC50,[19],1.83 µM (inconclusive)
same,EC50,[4],< 0.1 µM (active)
same,EC50,[20],0.784 µM (active)
same,EC50,[21],0.518 µM (active)
same,EC50,[5],< 0.1 µM (active)
same,EC50,[22],24.2 µM (inconclusive)
same,EC50,[23],0.963 µM (active)
same,EC50,[6],0.142 µM (active)
same,EC50,[24],6.66 µM (inconclusive)
same,EC50,[25],0.992 µM (active)
C/C(Cl)=C\Cn1c(O)c(/N=N/C(=N)S)c2ccccc21,IC50,[26],63.5 µM (active)
same,EC50,[27],> 30 µM (not active)
same,EC50,[28],1.2 µM (active)
same,IC50,[29],> 20 µM (inactive)
